Publication PMC7460544, “Prenylated Flavonoids from the Roots of Tephrosia rhodesica” (Journal of Natural Products, 2020)

How the values were obtained:
[1] = test system: chloroquine-sensitive (3D7) strain of Plasmodium falciparum; assay: asexual P. falciparum imaging growth inhibition assay (antiplasmodial activity); assay type: cell-based; conditions: for antiplasmodial activity in words: P. falciparum 3D7
[2] = test system: HEK 293 mammalian cells; assay: cytotoxicity against HEK 293 mammalian cells (LD50); assay type: cell-based; conditions: single experiment

| SMILES | antiplasmodial activity in words [1] | LD50 (HEK-293), given as % at 40 μM [2] | LD50 (HEK-293) [2] | IC50 ([1]; Plasmodium falciparum, 3D7, read-out: IC50, μM (Pf3D7)) |
| --- | --- | --- | --- | --- |
| CC(C)=CCC1(CC=C(C)C)C(=O)C(=O)C2=C1O[C@H](c1ccccc1)C[C@H]2O (relative stereo) [Rhodiflavan C (4), (2S*,4R*)-4-hydroxy-7,7-bis(3-methylbut-2-en-1-yl)-2-phenyl-2,3,4,7-tetrahydrocyclopenta[b]pyran-5,6-dione] | moderate activities | 101% at 40 μM | – | – |
| C=C(C)[C@H]1Cc2c(ccc3c2O[C@@H]2C(O)Oc4cc(OC)c(OC)cc4[C@@H]2C3=O)O1 (stereo partly drawn) [6-Hydroxyrotenone (15), 6-hydroxyrotenone] | moderate activities | – | 10.9 µM | – |
| CCN(CC)CCCC(C)Nc1ccnc2cc(Cl)ccc12 (stereo not drawn) [Chloroquine, reference compound] | – | – | – | 0.0047 µM |
| COc1cc(OC)c2c(c1CC=C(C)C)O[C@H](c1ccccc1)C[C@H]2OC [Quercetol B (9), quercetol B] | moderate activities | 87% at 40 μM | – | – |
| CC(C)=CCc1cc2c(cc1O)OC[C@@]1(O)c3cc4c(cc3O[C@@H]21)OCO4 [Rhodacarpin (5), (6aS,12aS)-2-(3-methylbut-2-en-1-yl)-6H-[1,3]dioxolo[4′,5′:5,6]benzofuro[3,2-c]chromene-3,6a(12aH)-diol] | moderate activities | 27% at 40 μM | – | – |
| CC(C)=CCC1(CC=C(C)C)C(=O)[C@@](O)(CC=C(C)C)C(=O)C2=C1O[C@H](c1ccccc1)C[C@H]2O [Rhodiflavan A (2), 4,6-dihydroxy-6,8,8-tris(3-methylbut-2-en-1-yl)-2-phenyl-2,3,4,8-tetrahydro-5H-chromene-5,7(6H)-dione] | moderate activities | – | – | – |
| CC(C)=CCC1(CC=C(C)C)C(=O)[C@](O)(CC=C(C)C)C(=O)C2=C1O[C@H](c1ccccc1)C[C@H]2O [Rhodiflavan B (3), 4,6-dihydroxy-6,8,8-tris(3-methylbut-2-en-1-yl)-2-phenyl-2,3,4,8-tetrahydro-5H-chromene-5,7(6H)-dione] | moderate activities | 34% at 40 μM | – | – |
